# Counter-ions that a name gives are not always drawn.
# Test system: up-regulation of ICAM-1 (CD54) by IFNγ in U937 human monocytic cells
# Assay: U937 IFNγ ICAM1 FACS Assay
# Assay type: cell-based
# Details: Homo sapiens, U-937, U937 cells stimulated with IFNγ, ICAM-1 expression by FACS; read-out: IC50, Example 44
# Excerpt: The activity of the compounds of the invention may additionally be characterized by assaying the effect of the 2,4-substituted pyrimidinediamine compounds described herein on A549 lung epithelial cells and U937 cells. A549 lung epithelial cells and U937 cells up-regulate ICAM-1 (CD54) surface expression in response to a variety of different stimuli. Therefore, using ICAM-1 expression as readout, test compound effects on different signaling pathways can be assessed in the same cell type. Stimulation with IL-1β through the IL-1β receptor activates the TRAF6/NFκB pathway resulting in up-regulation of ICAM-1. IFNγ induces ICAM-1 up-regulation through activation of the JAK1/JAK2 pathway. The up-regulation of ICAM-1 can be quantified by flow cytometry across a compound dose curve and EC50, values are calculated.
# U937 human monocytic cells up-regulate ICAM-1 (CD54) surface expression in response to a variety of different stimuli. Therefore, using ICAM-1 expression as readout, compound effects on different signaling pathways can be assessed in the same cell type. IFNγ up-regulates ICAM-1 through activation of the JAK/Stat pathway. In this example, the up-regulation of ICAM-1 by IFNγ was assessed.
# The U937 human monocytic cell line was obtained from ATCC of Rockville Maryland, catalog number CRL-1593.2, and cultured in RPM1-1640 medium containing 10% (v/v) FCS. U937 cells were grown in 10% RPMI. The cells were then plated at a concentration of 100,000 cells per 160 μL in 96 well flat bottom plates. […] Then 4 μL of test compound was transferred to 76 μL of 10% RPMI resulting in a 10× solution (100 μM test compound, 5% DMSO). For control wells, 4 μL of DMSO was diluted into 76 μL 10% RPMI.
# The assay was performed in duplicate with 8 points (8 3-fold dilution concentrations from […]) and with 4 wells of DMSO only (control wells) under stimulated conditions and 4 wells of DMSO only under unstimulated conditions.
# The diluted compound plate was mixed 2× using a multimek (Beckman Coulter of Brea, California) and then 20 μL of the diluted compounds was transferred to the 96 well plate containing 160 μL of cells, which were then mixed again twice at low speeds. The cells and compounds were then pre-incubated for 30 minutes at 37° C. with 5% CO2.
# The 10× stimulation mix was made by preparing a 100 ng/mL solution of human IFNγ in 10% RPMI. […] The cells were kept under conditions for stimulation for 18-24 hours at 37° C. with 5% CO2.
# The cells were transferred to a 96 well round bottom plate for staining and then kept on ice for the duration of the staining procedure. Cells were spun down at 1000 rpm for 5 minutes at 4° C., following which the supernatant was removed. Following removal of the supernatant, 1 μL APC conjugated mouse anti-human ICAM-1 antibody was added per 100 μL FACS buffer. The cells were then incubated on ice in the dark for 30 minutes. Following incubation, […] of FACS buffer was added and the cells were centrifuged at 1000 rpm for 5 minutes at 4° C., following which the supernatant was removed. After removal of the supernatant, 200 μL of FACS buffer was added and the cells were resuspended. After suspension, the cells were centrifuged at 1000 rpm for 5 min at 4° C. Supernatant was then removed prior to resuspension of the cells in 150 μL FACS buffer.
# Detection was performed using a BD LSR I System Flow Cytometer, purchased from BD Biosciences of San Jose, California The live cells were gated for live scatter and the geometric mean of ICAM-APC was measured (Becton-Dickinson CellQuest software version 3.3, Franklin Lakes, NJ). Both % live cells and ICAM-1 expression was analyzed. The assays for the test compounds were carried out in parallel with a control compound of known activity.
row,IC50 [µM],SMILES
1,2.76,"NS(=O)(=O)c1cccc(Nc2ncc(F)c(Nc3ccc4ncccc4c3)n2)c1 [VII-70, N2-(3-Aminosulfonylphenyl)-5-fluoro-N4-(quinolin-6-yl)-2,4-pyrimidinediamine]"
2,6.06,"Cc1cc(Nc2ncc(F)c(Nc3ccc(OC(F)(F)F)c(Cl)c3)n2)cc(S(N)(=O)=O)c1Cl [VI-18, N2-(3-Aminosulfonyl-4-chloro-5-methylphenyl)-N4-(3-chloro-4-trifluoromethoxyphenyl)-5-fluoro-2,4-pyrimidinediamine]"
3,3.54,"Cc1ccc(Nc2ncc(F)c(Nc3cccc4cccnc34)n2)cc1S(N)(=O)=O [VII-77, N2-(3-Aminosulfonyl-4-methylphenyl)-5-fluoro-N4-(quinolin-8-yl)-2,4-pyrimidinediamine]"
4,1.39,"COc1cc(Nc2nc(Nc3ccc(C)c(S(N)(=O)=O)c3)ncc2F)ccc1Cl [VI-5, N2-(3-Aminosulfonyl-4-methylphenyl)-N4-(4-chloro-3-methoxyphenyl)-5-fluoro-2,4-pyrimidinediamine]"
5,1.74,"Cc1ccc(Nc2ncc(F)c(Nc3ccc(CO)cc3)n2)cc1S(N)(=O)=O [VI-52, N2-(3-Aminosulfonyl-4-methylphenyl)-5-fluoro-N4-(4-hydroxymethylphenyl)-2,4-pyrimidinediamine]"
6,0.572,"N#CCN1C(=O)COc2ccc(Nc3nc(Nc4ccc(S(N)(=O)=O)cc4)ncc3F)cc21 [Compound V-6, N2-(4-Aminosulphonylphenyl)-5-fluoro-N4-(3-oxo-4-cyanomethyl-benz[1,4]oxazin-6-yl]-2,4-pyrimidinediamine]"
7,3.95,"NS(=O)(=O)c1cccc(Nc2ncc(F)c(Nc3ccc(C(=O)N4CCSCC4)cc3)n2)c1 [IX-34, N2-(3-Aminosulfonylphenyl)-5-fluoro-N4-[4-(4-thiomorpholinyl)carbonylphenyl]-2,4-pyrimidinediamine]"
8,0.66,"CN1C(=O)CSc2ccc(Nc3nc(Nc4ccc(S(N)(=O)=O)cc4)ncc3F)cc21 [VII-48, N2-(4-Aminosulfonylphenyl)-5-fluoro-N4-(4-methyl-3-oxo-benz[1,4]thiazin-6-yl)-2,4-pyrimidinediamine]"
9,1.09,"Cc1ccc(Nc2ncc(F)c(Nc3ccc4[nH]cc(CC#N)c4c3)n2)cc1S(N)(=O)=O [IX-14, N2-(3-Aminosulfonyl-4-methylphenyl)-N4-(3-cyanomethyl-1H-indol-5-yl)-5-fluoro-2,4-pyrimidinediamine]"
10,2.1,"Cc1ccc(Nc2ncc(F)c(Nc3ccc(C(=O)N4CCSCC4)cc3)n2)cc1S(N)(=O)=O [IX-35, N2-(3-Aminosulfonyl-4-methylphenyl)-5-fluoro-N4-[4-(4-thiomorpholinyl)carbonylphenyl]-2,4-pyrimidinediamine]"
11,1.37,"C#CCOc1ccc(Nc2nc(Nc3ccc(Cl)c(S(N)(=O)=O)c3)ncc2F)cc1 [VI-55, N2-(3-Aminosulfonyl-4-chlorophenyl)-5-fluoro-N4-[4-(prop-2-ynyloxy)phenyl]-2,4-pyrimidinediamine]"
12,5.36,"N#CCc1c[nH]c2c(Nc3nc(Nc4cccc(S(N)(=O)=O)c4)ncc3F)cccc12 [IX-15, N2-(3-Aminosulfonylphenyl)-N4-(3-cyanomethyl-1H-indol-7-yl)-5-fluoro-2,4-pyrimidinediamine]"
13,64.6,"NC(=O)c1cc2cc(Nc3nc(Nc4cccc(S(N)(=O)=O)c4)ncc3F)ccc2o1 [VII-54, N2-(3-Aminosulfonylphenyl)-N4-(2-aminocarbonylbenzofurane-5-yl)-5-fluoro-2,4-pyrimidinediamine]"
14,0.454,"COc1ccc(Nc2nc(Nc3cc(C)c(Cl)c(S(N)(=O)=O)c3)ncc2F)cc1Cl [VI-17, N2-(3-Aminosulfonyl-4-chloro-5-methylphenyl)-N4-(3-chloro-4-methoxyphenyl)-5-fluoro-2,4-pyrimidinediamine]"
15,0.705,"Cc1ccc(Nc2ncc(F)c(Nc3cccc(-c4cnco4)c3)n2)cc1S(N)(=O)=O [IV-2, N2-(3-Aminosulfonyl-4-methylphenyl)-5-fluoro-N4-[3-(1,3-oxazol-5-yl)phenyl]-2,4-pyrimidinediamine]"
16,0.673,"COc1ccc(Nc2nc(Nc3ccc(N4CCN(C)CC4)c(S(N)(=O)=O)c3)ncc2F)cc1Cl [VI-116, N2-[3-Aminosulfonyl-4-(4-methylpiperazine-1-yl)phenyl]-N4-(3-chloro-4-methoxyphenyl)-5-fluoro-2,4-pyrimidinediamine]"
17,33.2,"Cc1ccc(Nc2ncc(F)c(Nc3ccc(C)c(S(N)(=O)=O)c3)n2)cc1S(N)(=O)=O [VI-114, N2,N4-Bis-(3-aminosulfonyl-4-methylphenyl)-5-fluoro-2,4-pyrimidinediamine]"
18,1.77,"C#CCn1ccc2cc(Nc3nc(Nc4cccc(S(N)(=O)=O)c4)ncc3F)ccc21 [IX-2, N2-(3-Aminosulfonylphenyl)-5-fluoro-N4-[1-(propyn-3-yl)indol-5-yl]-2,4-pyrimidinediamine]"
19,0.41,"C#CCOc1ccc(Nc2nc(Nc3ccc(C)c(S(N)(=O)=O)c3)ncc2F)cc1F [VI-60, N2-(3-Aminosulfonyl-4-methylphenyl)-5-fluoro-N4-[3-fluoro-4-(prop-2-ynyloxy)phenyl]-2,4-pyrimidinediamine]"
20,4.9,"NS(=O)(=O)c1cc(Nc2ncc(F)c(Nc3ccc(O)cc3)n2)ccc1F [VI-100, N2-(3-Aminosulfonyl-4-fluorophenyl)-5-fluoro-N4-(4-hydroxyphenyl)-2,4-pyrimidinediamine]"
21,1.85,"N#CCc1c[nH]c2ccc(Nc3nc(Nc4cccc(S(N)(=O)=O)c4)ncc3F)cc12 [IX-13, N2-(3-Aminosulfonylphenyl)-N4-(3-cyanomethyl-1H-indol-5-yl)-5-fluoro-2,4-pyrimidinediamine]"
22,3.48,"N#CCc1c[nH]c2cc(Nc3nc(Nc4cccc(S(N)(=O)=O)c4)ncc3F)ccc12 [IX-12, N2-(3-Aminosulfonylphenyl)-N4-(3-cyanomethyl-1H-indol-6-yl)-5-fluoro-2,4-pyrimidinediamine]"
23,1.39,"COc1ccc(Nc2nc(Nc3cc(Cl)c(C)c(S(N)(=O)=O)c3)ncc2F)cc1Cl [VI-13, N2-(3-Aminosulfonyl-5-chloro-4-methylphenyl)-N4-(3-chloro-4-methoxyphenyl)-5-fluoro-2,4-pyrimidinediamine]"
24,1.88,"Cc1ccc(Nc2ncc(F)c(Nc3ccc(C(F)(F)F)cc3)n2)cc1S(N)(=O)=O [VI-50, N2-(3-Aminosulfonyl-4-methylphenyl)-5-fluoro-N4-(4-trifluoromethylphenyl)-2,4-pyrimidinediamine]"
25,0.735,"Cc1ccc(Nc2ncc(F)c(Nc3ccc4sccc4c3)n2)cc1S(N)(=O)=O [VII-57, N2-(3-Aminosulfonyl-4-methylphenyl)-N4-(benzothiophen-5-yl)-5-fluoro-2,4-pyrimidinediamine]"
26,1.44,"NS(=O)(=O)c1cccc(Nc2ncc(F)c(Nc3ccc(Cc4ccncc4)cc3)n2)c1 [III-128, N2-(3-Aminosulfonylphenyl)-5-fluoro-N4-[4-(4-pyridylmethyl)phenyl]-2,4-pyrimidinediamine p-Toluenesulfonic Acid Salt]"
27,2.06,"Cc1cnc(Nc2cccc(S(N)(=O)=O)c2)nc1Nc1ccc2c(c1)NC(=O)CO2 [VII-32, N2-(3-Aminosulphonylphenyl)-5-methyl-N4-(3-oxo-benz[1,4]oxazin-6-yl)-2,4-pyrimidinediamine]"
28,31.8,"CN1C(=O)C(C)(C)S(=O)(=O)c2ccc(Nc3nc(Nc4ccc(S(N)(=O)=O)cc4)ncc3F)cc21 [VII-12, N2-(4-Aminosulphonylphenyl)-5-fluoro-N4-(2,2,4-trimethyl-1,1,3-trioxo-benzo[1,4]thiazin-6-yl)-2,4-pyrimidinediamine]"
